# Measured values: patent US6156790A, “C-10 carbon-substituted artemisinin-like trioxane compounds having antimalarial, antiproliferative and antitumor activities” (priority 1997, dated 2000)
# Columns and labels:
# [1] = tested on: Ehrlich ascites tumor (EAT) cells; settings: cited from earlier work
# P. berghei = settings: cited from earlier work
# K-562 = assay: cells; assay type: cell-based; settings: Homo sapiens, K562, read-out: Log10 TGI
# MOLT-4 = assay: cells; settings: Homo sapiens, MOLT-4, read-out: concentration for primary growth inhibition
# Description: The screening assay is performed on a 96-well microtitre plates.
# Dose response curves, shown in the above mentioned Figures, are obtained by exposing various cancer cell lines to compounds having a known concentration ([log10 M]), as discussed in detail above, and then plotting the percentage growth of each cell line for each concentration. […] As discussed previously, the five drug dilutions routinely tested range from 10^-4 to 10^-9 molar.
# A549/ATCC = assay: NCI 60 cell line screen (SRB), non-small cell lung cancer; assay type: cell-based; settings: Homo sapiens
# EKVX = assay: as above; assay type: cell-based; settings: Homo sapiens
# HOP-62 = assay: cells; assay type: cell-based; settings: Homo sapiens, read-out: Log10 TGI (converted)
# HOP-92 = assay: NCI 60 cell line screen (SRB), non-small cell lung cancer; assay type: cell-based; settings: Homo sapiens, read-out: Log10 TGI (converted)
# NCI-H226 = assay: as above; assay type: cell-based; settings: Homo sapiens
# NCI-H23 = assay: as above; assay type: cell-based; settings: Homo sapiens
# NCI-H460 = assay: cells; assay type: cell-based; settings: Homo sapiens
# NCI-H522 = assay: cells; assay type: cell-based; settings: Homo sapiens, read-out: Log10 TGI (converted)
# COLO 205 = assay: NCI 60 cell line screen (SRB), colon cancer; assay type: cell-based; settings: Homo sapiens, read-out: Log10 TGI (converted)
# HCT-116 = assay: cells; assay type: cell-based; settings: Homo sapiens, read-out: Log10 TGI (converted)
# HCT-15 = assay: cells; assay type: cell-based; settings: Homo sapiens, HCT-15, read-out: Log10 TGI
# HT29 = assay: cells; assay type: cell-based; settings: Homo sapiens, HT-29, read-out: Log10 TGI (converted)
# KM12 = assay: cells; assay type: cell-based; settings: Homo sapiens, read-out: Log10 TGI (converted)
# SF-268 = assay: NCI 60 cell line screen (SRB), CNS cancer; assay type: cell-based; settings: Homo sapiens, read-out: Log10 TGI (converted)
# SF-295 = assay: cells; assay type: cell-based; settings: Homo sapiens, read-out: Log10 TGI (converted)
# SF-539 = assay: cells; assay type: cell-based; settings: Homo sapiens, read-out: Log10 TGI (converted)
# SNB-75 = assay: cells; assay type: cell-based; settings: Homo sapiens
# U251 = assay: cells; assay type: cell-based; settings: Homo sapiens, U-251, read-out: Log10 TGI (converted)
# A498 = assay: cells; assay type: cell-based; settings: Homo sapiens, read-out: Log10 GI50 (converted)
# PC-3 = assay: cells; assay type: cell-based; settings: Homo sapiens, PC-3, read-out: Log10 TGI
# MCF7 = assay: cells; assay type: cell-based; settings: Homo sapiens
# MDA-MB231/ATCC = assay: cells; assay type: cell-based; settings: Homo sapiens, MDA-MB-231, read-out: Log10 TGI (converted)
# HS 578T = assay: cells; assay type: cell-based; settings: Homo sapiens, read-out: Log10 TGI (converted)
# MDA-MB-435 = assay: cells; assay type: cell-based; settings: Homo sapiens, read-out: Log10 TGI (converted)
# MDA-N = assay: cells; assay type: cell-based; settings: Homo sapiens
# BT-549 = assay: cells; assay type: cell-based; settings: Homo sapiens, read-out: Log10 TGI (converted)
# T-47D = assay: cells; assay type: cell-based; settings: Homo sapiens, T47D, read-out: Log10 TGI
# 60 cell line panel = assay: NCI 60 cell line screen, whole panel; assay type: cell-based
# [2] = tested on: murine keratinocyte cell line PE; assay: growth inhibition of PE cells (MTT assay); assay type: cell-based; settings: 100 nanomolar
# Description: To determine the inhibitory effect of the compositions of the present invention on cell proliferation, screening assays were performed on a murine keratinocyte cell line PE. Cell line PE was chosen for its particular sensitivity to the induction of ornithine decarboxylase (ODC) activity by the extensively characterized tumor promoter TPA. […] PE cell culture medium consisted of Eagle's minimal essential medium without calcium chloride (Whittaker Bioproducts, Walkersville, Mass.) supplemented with 8% chelexed fetal calf serum and 1% antibiotic-antimycotic (Gibco BRL) and the addition of CaCl2 to 0.05 mM Ca^++.
# Growth Inhibition. Growth curves, shown in FIGS. 1 and 2, for PE cells treated with calcitriol and the C-10 carbon-substituted dimers 21, 22, 26, 27, and 28 generated by assay for the reduction of the tetrazolium-based compound MTT, see Charmichael, et al., Cancer Res., 47:936-942 (1987). […] PE cells were seeded at a density of 5,000 cells/well in 50 μL of medium into 96-well microtiter plates. Twelve hours later, the medium was removed, and cells were treated with 100 μL of fresh medium into which the appropriate amount of calcitrol or analog dissolved in dimethyl sulfoxide (DMSO) had been added, with the concentration of DMSO held constant at 0.1%. […] At 24-hour intervals following the initial treatment of the cells with compounds, 0.1 mg (50 μL of a 2 mg/mL solution) of MTT was added to each well. After 4 hours, the MTT was removed and DMSO added to dissolve the blue formazan dye. Using a microtiter plate reader, the A505 was then determined and cell number calculated from blank-subtracted absorbance values.
# [3] = tested on: chloroquine-sensitive P. falciparum (NF54); assay: In vitro antimalarial activity ([3H]hypoxanthine incorporation); assay type: cell-based; settings: in words
# Description: Activity was determined by measuring the incorporation of [^3 H]hypoxanthine, by the methods of Desjardins and Milhouse, with the following modofications, see […].; Haynes, […]. Antimicrob. Agents Chemother., 16:710 (1979); Milhous, W. K.; Weatherly, […].; Antimicrob. Agents Chemother., 27: 525 (1985). […] Parasitemia was maintained at 0.05-3% and doubling time at approximately 15 hours by twice weekly change of medium and replenishment with fresh erythrocytes. […] Sigma-Aldrich #27,043-1). DMSO solutions were diluted 500-fold in medium, serially diluted in 0.2% DMSO in medium (to maintain constant solvent concentration), then 100 μL aliquots were pipetted into microtiter plate wells (Costar 3595). […] Plates included at least 8 wells of no drug controls (4 with and 4 without DMSO) and 4 wells of uninfected erythrocytes. […] Cells were harvested (Brandel MB-48R) onto GF-C glass filters (Brandel). The filters were washed five times with 3 mL water per sample spot, dried under a heat lamp, and counted (Beckman Model LS-6500) in scintillation cocktail (ICN Cytoscint). Decays per minute (dpm) values were downloaded and analyzed (Power MFacintosh 7200/90; Microsoft Excel 5.0), to yield the mean and standard deviation at each drug concentration.
# IGROVI = assay: cells; settings: 60 cell
# ACHN = assay: cells; settings: Homo sapiens, read-out: Log10 LC50 (converted)
# [4] = rat liver microsomes; cited from earlier work
# [5] = tested on: murine keratinocyte cell line PE; assay: viability by trypan blue exclusion; assay type: cell-based; settings: 96 hours
# [6] = cited from earlier work
# [7] = read-out: Log10 LC50 (converted)
# [8] = read-out: Log10 TGI (converted)
# [9] = read-out: Log10 GI50 (converted)
smiles,measurement,setting,value
C[C@@H]1CC[C@H]2[C@@H](C)C(OC3O[C@@H]4O[C@@]5(C)CC[C@H]6[C@H](C)CC[C@@H]([C@H]3C)[C@@]46OO5)O[C@@H]3O[C@@]4(C)CC[C@@H]1[C@]32OO4 (some centres unmarked),times more cytotoxic than artemisinin,[1],approximately twenty-two
same,times more cytotoxic than dihydroartemisinin (II-1),[1],sixty
same,times more potent than artemisinin at 50% growth inhibition,[1]; one cancer cell line,approximately twenty-two
same,SD90 (parasitemia 90 percent suppressed),P. berghei; P. berghei-infected mice,10 mg/kg
C[C@H]1[C@@H](CC(=O)c2cccc(C(=O)C[C@H]3O[C@@H]4O[C@@]5(C)CC[C@H]6[C@H](C)CC[C@@H]([C@H]3C)[C@@]46OO5)c2)O[C@@H]2O[C@@]3(C)CC[C@H]4[C@H](C)CC[C@@H]1[C@@]24OO3 [Dimer 22],IC (TGI),K-562,> 100 µM
same,GI50,MOLT-4,> 100 µM
same,CC50,A549/ATCC; [7],> 100 µM
same,IC (TGI),A549/ATCC; [8],> 100 µM
same,CC50,EKVX; [7],> 100 µM
same,IC (TGI),EKVX; [8],> 100 µM
same,IC (TGI),HOP-62,> 100 µM
same,IC (TGI),HOP-92,> 100 µM
same,CC50,NCI-H226; [7],> 100 µM
same,IC (TGI),NCI-H226; [8],> 100 µM
same,LC50,NCI-H23; [7],> 100 µM
same,IC (TGI),NCI-H23; [8],> 100 µM
same,IC (TGI),"NCI-H460; NCI-H460, read-out: Log10 TGI",> 100 µM
same,CC50,"NCI-H460; NCI-H460, read-out: Log10 LC50 (converted)",> 100 µM
same,IC (TGI),NCI-H522,> 100 µM
same,IC (TGI),COLO 205,> 100 µM
same,IC (TGI),HCT-116,> 100 µM
same,IC (TGI),HCT-15,> 100 µM
same,IC (TGI),HT29,> 100 µM
same,IC (TGI),KM12,> 100 µM
same,IC (TGI),SF-268,> 100 µM
same,IC (TGI),SF-295,> 100 µM
same,IC (TGI),SF-539,> 100 µM
same,GI50,SNB-75; [9],4.37 µM
same,IC (TGI),SNB-75; [8],> 100 µM
same,IC (TGI),U251,> 100 µM
same,GI50,A498,46.8 µM
same,IC (TGI),PC-3,> 100 µM
same,IC (TGI),"MCF7; MCF7, read-out: Log10 TGI",> 100 µM
same,GI50,"MCF7; MCF7, read-out: Log10 GI50 (converted)",0.389 µM
same,IC (TGI),MDA-MB231/ATCC,> 100 µM
same,IC (TGI),HS 578T,> 100 µM
same,IC (TGI),MDA-MB-435,> 100 µM
same,CC50,MDA-N; [7],> 100 µM
same,IC (TGI),MDA-N; [8],> 100 µM
same,IC (TGI),BT-549,> 100 µM
same,IC (TGI),T-47D,> 100 µM
same,GI50,"60 cell line panel; 60 cell, mean over panel, read-out: Log10 GI50 MG MID (converted)",75.9 µM
same,Log10 TGI Delta,60 cell line panel; panel,0.00
same,Log10 TGI Range,60 cell line panel; panel,0.00
same,antiproliferative activity compared with calcitriol,[2],at least as antiproliferative as calcitrol
same,IC50 compared with artemisinin,[3],lower than that of artemisinin
same,GI50,IGROVI; [9],0.589 µM
same,CC50,"IGROVI; Homo sapiens, read-out: Log10 LC50 (converted)",> 100 µM
same,CC50,ACHN,> 100 µM
CCO[C@H]1O[C@@H]2O[C@@]3(C)CC[C@H]4[C@H](C)CC[C@@H]([C@H]1C)[C@@]24OO3 [arteether],conversion into dihydroartemisinin (II-1),[4],rapidly converted
"C=C1/C(=C\C=C2/CCC[C@]3(C)[C@@H]([C@H](C)CCCC(C)(C)O)CC[C@@H]23)C[C@@H](O)C[C@@H]1O [calcitriol, 1α,25-dihydroxyvitamin D3]",viability of treated cells vs control cells,[5],identical to control cells
"C[C@@H]1CC[C@H]2[C@@H](C)C(O)O[C@@H]3O[C@@]4(C)CC[C@@H]1[C@]32OO4 (some centres unmarked) [dihydroartemisinin (II-1), dihydroartemisinin]",half-life in plasma,[6],less than two
CC1=CO[C@@H]2O[C@@]3(C)CC[C@H]4[C@H](C)CC[C@@H]1[C@@]24OO3 [olefinic compound III],activity against P. berghei-infected mice,P. berghei; in words,inactive
